According to PMC11190219 (2024):

Columns and labels:
[1] = tested on: FAM-c-KIT2-TAMRA (DNA, G4) GGGCGGGCGCTAGGGAGGGG; assay: FRET melting; details: K+ 60 mM (potassium cacodylate); pH 7.4, 2 µM compound, 0.2 µM DNA
[2] = tested on: c-KIT2 (DNA, G4) GGGCGGGCGCTAGGGAGGGG; assay: fluorescence titration (ligand emission); details: K+ 60 mM (potassium cacodylate); pH 7.4, room temperature, 2.5 µM TBP2, Hill-1 fit, apparent
[3] = tested on: h-TELO (DNA, G4) TTGGGTTAGGGTTAGGGATTAGGGA; assay: fluorescence titration (ligand emission); details: K+ 60 mM (potassium cacodylate); pH 7.4, room temperature, 2.5 µM TBP2, Hill-1 fit, apparent
[4] = tested on: c-MYC22 (NMR) (DNA, G4) TGAGGGTGGGTAGGGTGGGTAA; assay: 1D 1H NMR titration; details: K+ 100 mM; 25 mM Tris-HCl, pH 7.4, 100 µM DNA, 5-7.5% d6-DMSO
[5] = tested on: c-KIT1 (DNA, G4) GGGAGGGCGCTGGGAGGAGGG; assay: fluorescence titration (ligand emission); details: K+ 60 mM (potassium cacodylate); pH 7.4, room temperature, 2.5 µM TBP2, Hill-1 fit, apparent
[6] = tested on: FAM-BCL-2-TAMRA (DNA, G4) GGGCGCGGGAGGAATTGGGCGGG; assay: FRET melting; details: K+ 60 mM (potassium cacodylate); pH 7.4, 2 µM compound, 0.2 µM DNA
[7] = tested on: BCL-2 (DNA, G4) GGGCGCGGGAGGAATTGGGCGGG; assay: fluorescence titration (ligand emission); details: K+ 60 mM (potassium cacodylate); pH 7.4, room temperature, 2.5 µM TBP2, Hill-1 fit, apparent
[8] = tested on: FAM-c-KIT1-TAMRA (DNA, G4) GGGAGGGCGCTGGGAGGAGGG; assay: FRET melting; details: K+ 60 mM (potassium cacodylate); pH 7.4, 2 µM compound, 0.2 µM DNA

`CN(C)CCCNC(=O)c1csc(NC(=O)c2csc(NC(=O)CCCc3cn(CCNC(=O)c4csc(NC(=O)c5csc(N)n5)n4)nn3)n2)n1` gave a ΔTM [1] of 4.1 ± 0.2 °C, a Kd [2] of 9.2 µM and a Kd [3] of 8.2 µM. The binding [4] was “yes”, the Kd [5] was 9.5 µM and the ΔTM [6] was 3.8 ± 0.2 °C. It also gave a Kd [7] of 10.2 µM and a ΔTM [8] of 1.3 ± 0.1 °C.

`CN(C)CCCNC(=O)c1csc(NC(=O)c2csc(NC(=O)CCCc3cn(CCNC(=O)c4csc(NC(=O)c5csc(NC(=O)OC(C)(C)C)n5)n4)nn3)n2)n1` was tested, and the ΔTM [1] was 0.5 ± 0 °C, the ΔTM [6] was 1 ± 0 °C and the ΔTM [8] was 0 °C.
